# Assay results published in article PMC5000588, “A Female-Biased Odorant Receptor from Apolygus lucorum (Meyer-Dür) Tuned to Some Plant Odors” (International Journal of Molecular Sciences, 2016).
# Target: T1, AlucOR46/Orco (Apolygus lucorum, UniProt A0A1Q1NIJ3)
# T1 construct: gene OR39; full-length ORF of AlucOR46 (1185 bp, 394 residues) in pT7Ts, cRNA co-injected with AlucOrco cRNA into Xenopus oocytes; OR/Orco heteromeric channel; with Odorant receptor coreceptor
# T1 sequence (A0A1Q1NIJ3 1-394): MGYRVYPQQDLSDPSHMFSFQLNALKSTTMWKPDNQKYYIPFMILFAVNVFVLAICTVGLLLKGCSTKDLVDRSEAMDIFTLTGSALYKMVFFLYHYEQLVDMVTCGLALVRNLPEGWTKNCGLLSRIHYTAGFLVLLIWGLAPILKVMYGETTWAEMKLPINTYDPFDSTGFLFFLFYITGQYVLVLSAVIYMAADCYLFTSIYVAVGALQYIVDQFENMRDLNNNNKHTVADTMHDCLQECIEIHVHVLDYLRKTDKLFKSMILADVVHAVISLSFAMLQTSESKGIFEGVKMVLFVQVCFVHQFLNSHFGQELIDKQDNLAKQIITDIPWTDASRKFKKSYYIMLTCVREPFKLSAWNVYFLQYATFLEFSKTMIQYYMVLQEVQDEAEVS
# T1 sequence (V9TQK7 1-471 partner): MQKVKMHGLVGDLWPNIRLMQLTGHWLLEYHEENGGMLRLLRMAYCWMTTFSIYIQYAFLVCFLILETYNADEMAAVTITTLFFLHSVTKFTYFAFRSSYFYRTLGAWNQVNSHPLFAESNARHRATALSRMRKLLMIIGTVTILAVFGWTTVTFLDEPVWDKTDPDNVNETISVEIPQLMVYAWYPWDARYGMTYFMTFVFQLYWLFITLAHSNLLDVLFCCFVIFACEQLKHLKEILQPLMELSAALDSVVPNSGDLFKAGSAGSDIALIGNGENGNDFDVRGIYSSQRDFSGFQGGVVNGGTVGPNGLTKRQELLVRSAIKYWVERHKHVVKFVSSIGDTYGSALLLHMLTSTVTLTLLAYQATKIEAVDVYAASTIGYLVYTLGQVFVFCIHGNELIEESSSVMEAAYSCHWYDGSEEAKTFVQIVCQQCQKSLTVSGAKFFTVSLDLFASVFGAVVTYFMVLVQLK
# Test: two-electrode voltage clamp, Xenopus oocytes, inward current dose-response
# Format: cell-based
# Settings: not given
# Excerpt: two-electrode voltage clamp, Xenopus oocytes, inward current dose-response on AlucOR46/Orco
row,EC50 [µM],SMILES
1,13.8,CCCCCCCO [1-Heptanol]
2,74.4,CC1(C)[C@H]2CC=C(CO)[C@@H]1C2 [(1R)-(−)-Myrtenol]
3,25.3,CC/C=C/CCO [(E)-3-Hexenol]

row,SMILES,EC50 [µM]
1,CCC/C=C/C=O [(E)-2-Hexenal],37.1

# Target: T1, AlucOR46/Orco
# Test: two-electrode voltage clamp, Xenopus oocytes, inward current at a single concentration
# Format: cell-based
# Settings: agonist; 10^−4 M odorant; coexpressed with AlucOrco; 1× Ringer's buffer pH 7.6
row,SMILES,inward current response at 10^-4 M
1,C=C(C)[C@H]1CC=C(C)CC1 [(R)-(+)-Limonene],"Only six compounds: (S)-(−)-Limonene, (R)-(+)-Limonene"
2,C=C(C)[C@@H]1CC=C(C)CC1 [(S)-(−)-Limonene],"Only six compounds: (S)-(−)-Limonene, (R)-(+)-Limonene"
